ChEMBL document CHEMBL1201862, “PubChem BioAssay data set” (2004)
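Cells were grown in 96-well plates and exposed to each compound for 48 hours at five concentrations; endpoints were interpolated linearly between bracketing concentrations, or set to the highest concentration if not reached. Abbreviation: GI50, concentration required for 50% inhibition of growth.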 Calls of active or inactive are those of the source. No stated cut-off is given here; in the data, active = GI50 up to about 1.1 µM and inactive = higher.

Tests used:
Assay in all cases: inhibition of tumour cell growth, NCI panel, 48 h
OVCAR-8 = test system: OVCAR-8
ACHN = test system: ACHN
SR = test system: SR
UACC-62 = test system: UACC-62
SNB-75 = test system: SNB-75
RXF 393 = test system: RXF 393
NCI-H226 = test system: NCI-H226
CCRF-CEM = test system: CCRF-CEM
SK-OV-3 = test system: SK-OV-3
SW-620 = test system: SW-620
HOP-92 = test system: HOP-92
TK-10 = test system: TK-10
HCT-15 = test system: HCT-15
SK-MEL-28 = test system: SK-MEL-28
RPMI-8226 = test system: RPMI-8226
OVCAR-3 = test system: OVCAR-3
LOX IMVI = test system: LOX IMVI
K562 = test system: K562
SK-MEL-5 = test system: SK-MEL-5
OVCAR-4 = test system: OVCAR-4

| SMILES | GI50 (OVCAR-8) | GI50 (ACHN) | GI50 (SR) | GI50 (UACC-62) | GI50 (SNB-75) | GI50 (RXF 393) | GI50 (NCI-H226) | GI50 (CCRF-CEM) | GI50 (SK-OV-3) | GI50 (SW-620) | GI50 (HOP-92) | GI50 (TK-10) | GI50 (HCT-15) [µM] | GI50 (SK-MEL-28) | GI50 (RPMI-8226) | GI50 (OVCAR-3) | GI50 (LOX IMVI) | GI50 (K562) | GI50 (SK-MEL-5) | GI50 (OVCAR-4) |
| --- | --- | --- | --- | --- | --- | --- | --- | --- | --- | --- | --- | --- | --- | --- | --- | --- | --- | --- | --- | --- |
| Cc1nc2ccc(C(F)(F)F)cc2nc1Nc1ccc(Cl)c(Cl)c1 | 12.8 µM (inactive) | 11.3 µM (inactive) | 8.73 µM (inactive) | 12.9 µM (inactive) | > 10 µM (inactive) | 6.49 µM (inactive) | 16.1 µM (inactive) | 6.44 µM (inactive) | 18.9 µM (inactive) | 12.7 µM (inactive) | 3.27 µM (inactive) | 17.6 µM (inactive) | 6.12 | 12.2 µM (inactive) | 8.17 µM (inactive) | 12.8 µM (inactive) | 3.03 µM (inactive) |  |  |  |
| O=c1cnn(C/C=C\CO)c(=O)[nH]1 | > 100 µM (inactive) | > 100 µM (inactive) | > 100 µM (inactive) |  | > 100 µM (inactive) | > 100 µM (inactive) | > 100 µM (inactive) | > 100 µM (inactive) |  | > 100 µM (inactive) | > 100 µM (inactive) | 75.2 µM (inactive) | > 100 | > 100 µM (inactive) | > 100 µM (inactive) | > 100 µM (inactive) | > 100 µM (inactive) | > 100 µM (inactive) | > 100 µM (inactive) |  |
| CC(C)c1nccn1Cc1ccc(Cl)cc1Cl | 46.2 µM (inactive) | 83 µM (inactive) | 44.4 µM (inactive) | 43.8 µM (inactive) | 36.5 µM (inactive) |  | 22.4 µM (inactive) |  | 47.9 µM (inactive) | 49.1 µM (inactive) | 37.8 µM (inactive) | 37.6 µM (inactive) | 42.4 | > 100 µM (inactive) | 16 µM (inactive) | 27.2 µM (inactive) | 43.6 µM (inactive) | 79.1 µM (inactive) | 12 µM (inactive) | 52.5 µM (inactive) |
| CC1(C)C2CCC1(C)[C@H](O)[C@H]2Nc1cc(C(F)(F)F)cc(C(F)(F)F)c1 (some centres undefined) | 3.21 µM (inactive) | > 100 µM (inactive) | 2.95 µM (inactive) | > 100 µM (inactive) | 0.0252 µM (active) | 2.85 µM (inactive) | 6.5 µM (inactive) |  | 3.88 µM (inactive) | 3.36 µM (inactive) |  | 3.15 µM (inactive) | 3.49 | 1.74 µM (inactive) | 3.01 µM (inactive) | 2.24 µM (inactive) | 3 µM (inactive) | 2.79 µM (inactive) | 5.38 µM (inactive) | 5.12 µM (inactive) |
| O=C1OC(c2ccccc2Br)=N/C1=C/c1ccccc1 | 21.6 µM (inactive) | 27.5 µM (inactive) | 27 µM (inactive) | 37.1 µM (inactive) | 53.5 µM (inactive) |  | 18.8 µM (inactive) | 35 µM (inactive) | 63.7 µM (inactive) | 42.9 µM (inactive) | > 10 µM (inactive) | 32.8 µM (inactive) | 29.9 | 41.8 µM (inactive) | 33.1 µM (inactive) | 14.1 µM (inactive) | 21.7 µM (inactive) | 63 µM (inactive) | 35.2 µM (inactive) | 25.4 µM (inactive) |
| CC1=CCC2CC1C(C(=O)c1c[nH]c3ccccc13)=NC2(C)C (centres undefined) | 56.5 µM (inactive) | 73.6 µM (inactive) | 4.5 µM (inactive) | 25.2 µM (inactive) |  |  | > 100 µM (inactive) | 22.4 µM (inactive) | 94.4 µM (inactive) | 76 µM (inactive) |  |  | 45.2 | > 100 µM (inactive) | 25.1 µM (inactive) | > 100 µM (inactive) | 80.9 µM (inactive) | 34 µM (inactive) | 37.6 µM (inactive) | 40.3 µM (inactive) |
| NC(=O)c1ccccc1NC(=O)C(=O)Nc1n[nH]c(N)n1 | > 100 µM (inactive) | > 100 µM (inactive) | > 100 µM (inactive) | > 100 µM (inactive) | > 100 µM (inactive) | > 100 µM (inactive) | > 100 µM (inactive) | > 100 µM (inactive) | > 100 µM (inactive) | > 100 µM (inactive) |  | > 100 µM (inactive) | > 100 |  | > 100 µM (inactive) | > 100 µM (inactive) | > 100 µM (inactive) | > 100 µM (inactive) | > 100 µM (inactive) | > 100 µM (inactive) |
| Cc1ccc2oc(=O)c(-c3ccccc3)nc2c1 | 36.4 µM (inactive) | 27.9 µM (inactive) | 29.5 µM (inactive) |  | 37.5 µM (inactive) |  | 37.8 µM (inactive) | 18.5 µM (inactive) |  | 22 µM (inactive) |  | 34 µM (inactive) | 25.1 | 50.4 µM (inactive) | 31.5 µM (inactive) | 46.5 µM (inactive) | 20.2 µM (inactive) | 24.3 µM (inactive) | 30.8 µM (inactive) | 23.8 µM (inactive) |
